Measurements from ChEMBL document CHEMBL1201862, “PubChem BioAssay data set” (2004).
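Cultured in 96-well plates, cells were exposed to test compound for 48 hours across five concentrations. Abbreviation: GI50, concentration required for 50% inhibition of growth.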 The source made the active and inactive calls. Cut-off read from the data, not from the text of the source: active = GI50 up to about 1.1 µM and inactive = higher.

Tests used:
Experiment in all cases: NCI anticancer screen, dose series, 48 h
[1] = test system: 786-0
[2] = test system: ACHN
[3] = test system: EKVX
[4] = test system: HL-60
[5] = test system: HOP-92
[6] = test system: HT-29
[7] = test system: K562
[8] = test system: KM-20L2
[9] = test system: LOX IMVI
[10] = test system: M14
[11] = test system: NCI-H23
[12] = test system: OVCAR-5
[13] = test system: SF-295
[14] = test system: SK-MEL-2
[15] = test system: U-251
[16] = test system: UACC-62
[17] = test system: CCRF-CEM

Measured: GI50

CCOc1cccc2sc(N)nc12
inactive: [1] > 100 µM | [2] > 100 µM | [3] 49 µM | [4] > 100 µM | [5] > 100 µM | [6] > 100 µM | [7] > 100 µM | [8] > 100 µM | [9] > 100 µM | [10] > 100 µM | [11] > 100 µM | [12] > 100 µM | [13] > 100 µM | [14] > 100 µM | [15] > 100 µM | [16] > 100 µM

O=C1c2ccccc2C(=O)N1Cc1ccccc1-c1c2nc(c(-c3ccccc3CN3C(=O)c4ccccc4C3=O)c3ccc([nH]3)c(-c3ccccc3CN3C(=O)c4ccccc4C3=O)c3nc(c(-c4ccccc4CN4C(=O)c5ccccc5C4=O)c4ccc1[nH]4)C=C3)C=C2
inactive: [1] > 100 µM | [2] > 100 µM | [17] > 100 µM | [4] > 100 µM | [5] > 100 µM | [6] > 100 µM | [7] > 100 µM | [8] > 100 µM | [9] > 100 µM | [10] 31.2 µM | [11] > 100 µM | [12] > 100 µM | [13] 72.1 µM | [14] > 100 µM | [15] > 100 µM | [16] > 100 µM

CCOc1ccc(NCC(=O)N2CC(=O)Nc3ccccc32)cc1
inactive: [1] > 100 µM | [2] > 100 µM | [17] > 100 µM | [3] > 100 µM | [4] > 100 µM | [5] > 100 µM | [6] > 100 µM | [7] > 100 µM | [8] > 100 µM | [9] > 100 µM | [10] > 100 µM | [11] > 100 µM | [12] > 100 µM | [13] > 100 µM | [14] > 100 µM | [15] > 100 µM | [16] > 100 µM

Cc1ccc(Sc2ccccc2[N+](=O)[O-])cc1
inactive: [2] 43.7 µM | [17] 30.9 µM | [3] 28.6 µM | [4] 21 µM | [5] 19.4 µM | [6] 19.9 µM | [7] 18.1 µM | [8] 33.3 µM | [9] 27.4 µM | [10] 29 µM | [11] 27.4 µM | [12] 72.3 µM | [13] 21.6 µM | [14] 27.9 µM | [15] 23 µM | [16] 37.3 µM

COc1cc(C(=O)C/C(CCC(=O)Nc2ccc(Cl)cc2Cl)=N/NC(=O)C(N)=O)ccc1O
inactive: [1] > 100 µM | [2] > 100 µM | [17] > 100 µM | [3] > 100 µM | [4] > 100 µM | [5] > 100 µM | [6] > 100 µM | [7] 76.2 µM | [8] > 100 µM | [10] > 100 µM | [11] > 100 µM | [12] > 100 µM | [13] > 100 µM | [14] > 100 µM | [15] > 100 µM | [16] 65.9 µM

Cc1c(C)c2cc3c(=O)c(CCl)coc3c(C)c2oc1=O
inactive: [1] 60.5 µM | [2] > 100 µM | [17] 48.3 µM | [3] > 100 µM | [4] > 100 µM | [7] > 100 µM | [8] > 100 µM | [9] > 100 µM | [10] > 100 µM | [11] > 100 µM | [12] > 100 µM | [13] > 100 µM | [14] > 100 µM | [15] > 100 µM | [16] > 100 µM

Cc1cc(NS(=O)(=O)c2ccc(NC(=O)COC(=O)c3cccc4c(=O)c5ccccc5[nH]c34)cc2)no1
inactive: [1] > 100 µM | [2] > 100 µM | [17] > 100 µM | [3] > 100 µM | [4] > 100 µM | [5] > 100 µM | [6] > 100 µM | [7] > 100 µM | [8] > 100 µM | [9] > 100 µM | [10] > 100 µM | [11] > 100 µM | [12] > 100 µM | [13] > 100 µM | [15] > 100 µM | [16] > 100 µM

CC(C)=CCc1c(O)cc(O)c2c1OC(c1ccc(O)cc1)C(O)C2=O (stereo not given)
inactive: [2] 25.5 µM | [17] > 10 µM | [3] 25.6 µM | [5] 18.3 µM | [6] 20.9 µM | [7] 20.2 µM | [8] 18.1 µM | [9] 18.7 µM | [10] 22.6 µM | [11] 18.2 µM | [12] 28.2 µM | [13] 27.5 µM | [14] 23.6 µM | [15] 25.2 µM | [16] 21.4 µM

CCOC(=O)CC1=CSC2=NCCN12
inactive: [1] > 100 µM | [2] > 100 µM | [17] > 100 µM | [3] > 100 µM | [4] > 100 µM | [5] > 100 µM | [6] > 100 µM | [7] > 100 µM | [8] > 100 µM | [9] > 100 µM | [10] > 100 µM | [11] > 100 µM | [12] > 100 µM | [13] > 100 µM | [14] > 100 µM | [15] > 100 µM | [16] > 100 µM

C/C(CC(=O)Nc1ccc(Cl)cc1)=N\NC(=O)C[n+]1ccccc1
inactive: [1] > 100 µM | [2] > 100 µM | [17] > 100 µM | [3] > 100 µM | [4] > 100 µM | [5] > 100 µM | [6] > 100 µM | [7] > 100 µM | [8] > 100 µM | [9] > 100 µM | [10] > 100 µM | [11] > 100 µM | [12] > 100 µM | [13] > 100 µM | [14] > 100 µM | [15] > 100 µM | [16] > 100 µM

COc1cc(NC(C)=O)c2[nH]c3c(C)cc(NC(C)=O)c(C)c3c2c1
inactive: [1] > 100 µM | [2] > 100 µM | [17] > 100 µM | [3] > 100 µM | [4] > 100 µM | [5] > 100 µM | [6] > 100 µM | [7] > 100 µM | [8] > 100 µM | [10] > 100 µM | [11] > 100 µM | [13] > 100 µM | [14] > 100 µM | [15] > 100 µM

CC(C)c1cccc(C(C)C)c1NC(=S)Nc1ccccc1
inactive: [2] > 100 µM | [17] 41.4 µM | [3] > 100 µM | [4] 6.81 µM | [5] > 100 µM | [6] > 100 µM | [7] 70.6 µM | [8] > 100 µM | [9] 79.4 µM | [10] > 100 µM | [11] > 100 µM | [12] > 100 µM | [13] > 100 µM | [14] > 100 µM | [15] > 100 µM | [16] > 100 µM

COC(=O)C(CC(C)C)NC(=O)NC12CC3CC(CC(F)(C3)C1)C2 (stereo not given)
inactive: [1] > 100 µM | [2] > 100 µM | [17] > 100 µM | [3] > 100 µM | [4] > 100 µM | [5] 50.6 µM | [6] > 100 µM | [7] > 100 µM | [8] > 100 µM | [9] > 100 µM | [10] > 100 µM | [11] > 100 µM | [12] > 100 µM | [14] > 100 µM | [15] > 100 µM | [16] > 100 µM

CCc1nnc(-c2nsc3ccccc23)s1
inactive: [2] > 100 µM | [17] 42.5 µM | [3] 23 µM | [4] > 100 µM | [5] 69.5 µM | [6] > 100 µM | [7] 54.7 µM | [8] 63.5 µM | [9] > 100 µM | [10] > 100 µM | [11] > 100 µM | [12] > 100 µM | [14] > 100 µM | [15] > 100 µM | [16] > 100 µM

COC(=O)C(Cc1nc2ccc(Cl)cc2nc1O)/C(=N/O)C(=O)Nc1cccc(Cl)c1C (stereo not given)
inactive: [1] > 100 µM | [2] > 100 µM | [17] > 100 µM | [3] 10.1 µM | [4] > 100 µM | [6] > 100 µM | [7] > 100 µM | [8] > 100 µM | [9] > 100 µM | [10] > 100 µM | [11] > 100 µM | [12] > 100 µM | [13] > 100 µM | [14] > 100 µM | [15] > 100 µM | [16] > 100 µM

CCOC(=O)C1(C#N)C(c2ccccc2)CC(O)(c2ccc([N+](=O)[O-])cc2)C(C(=O)c2ccc([N+](=O)[O-])cc2)C1c1ccccc1 (stereo not given)
inactive: [1] > 100 µM | [2] > 100 µM | [17] > 100 µM | [3] > 100 µM | [4] > 100 µM | [6] > 100 µM | [7] > 100 µM | [8] > 100 µM | [9] > 100 µM | [10] > 100 µM | [11] 42.2 µM | [12] > 100 µM | [13] > 100 µM | [14] > 100 µM | [15] > 100 µM | [16] > 100 µM

CC(=O)OC1CC2OC(Cc3ccccc32)O1 (stereo not given)
inactive: [1] > 100 µM | [2] > 100 µM | [17] 56.1 µM | [3] > 100 µM | [4] > 100 µM | [5] 34 µM | [6] > 100 µM | [7] > 100 µM | [8] > 100 µM | [9] > 100 µM | [10] 79.1 µM | [11] > 100 µM | [13] 65.3 µM | [14] > 100 µM | [15] 52.1 µM | [16] > 100 µM
